Reference: patent US20050112573A1, “Method of detecting toxic substance” (priority 2001, published 2005)

System: yeast genes (level of expressed mRNA)
Assay: DNA chip analysis of expressed mRNA of yeast genes after 2 h culture with a toxic chemical substance
Format: cell-based, Saccharomyces cerevisiae S288C
Procedure: Yeast (Saccharomyces cerevtisiae S288C (α SUC2mal mel gap2 CUP1)) were cultured at 25° C. on YPD medium (yeast extract 1%, polypepton 2%, glucose 2%). One of toxic chemical substances was added to the cell at logarithmic growth phase, and the cell was further cultured for two hours. Cell was cultured without any chemical substance in the same condition, and was used as control. Concentrations of the chemical substances were defined to inhibit the growth of the yeast but not lead to death.
After the completion of cultivation, the culture was centrifuged to collect the cells. To the cells, sodium acetate buffer (50 mM sodium acetate, 10 mM EDTA, 1% SDS) was added, and the mixture was shaken at 65° C. for five minutes, followed by returning to room temperature, and obtaining the supernatant, which procedure was repeated two times. To the supernatant, ½ amount of a solution of phenol/chloroform was added, and the mixture was centrifuged to give a supernatant, which was added with an equal amount of chloroform, and the mixture was centrifuged to give a supernatant. To the supernatant, an equal amount of isopropanol containing 0.3 M sodium acetate was added, and the mixture was allowed to stand at room temperature for 30 minutes, after which the mixture was centrifuged to give a sediment of the whole RNAs. Seventy % ethanol was added to the sediment, and the mixture was again centrifuged to give a sediment, which was then dried and dissolved in water. mRNA was isolated from the whole RNAs as followings. In view of the fact that a poly A chain is attached to the 3′ terminus of mRNA, a polynucleotide having a poly T structure which was immobilized on the surface of latex beads was used to trap the mRNA, and then the mRNA was washed and eluted with spine column (Oligotex-dT30<Super>mRNA Purification Kit, Takara). Reverse transcription of the mRNA was conducted with a reverse transcriptase (Super Script II Reverse Transcriptase; catalogue No. 18064-014, GibcoBRL) using fluorescence-labeled nucleotides to give cDNAs that were introduced with Cy3-dUTP or Cy5-dUTP during the reverse transcription.
The labeled cDNAs were dissolved in TE buffer (10 mM Tris-HCl/1 mM EDTA, pH8.0), and the solution was dropped on the DNA chip containing the whole genes of yeast (DNA Chip Research Inc. Japan) so that the cDNAs were hybridized on the DNA chip at 65° C. for over 12 hours. The fluoresces intensity of the DNA chip was read with a scanner, and the ratio relative to the fluorescence intensity resulting from the absence of chemical substance was estimated as the following, which is shown in Tables 1 to 9: [formula]
In the Tables, “Intensity” indicated in the rightmost column is a value of the level of expressed mRNA of each gene in control cells as divided by the average level of the expressions of the whole genes.

For CCCCC[C@H](O)CC(=O)CCc1ccc(O)c(OC)c1 [(13), gingerol], the “The level of expressed mRNA in the presence of chemical substance/absence: YDR109C” value (gene YDR109C) was 1.4, the “The level of expressed mRNA in the presence of chemical substance/absence: YDR128W” value (gene YDR128W) was 1.1 and the “The level of expressed mRNA in the presence of chemical substance/absence: YDR133C” value (gene YDR133C) was 0.1. The “The level of expressed mRNA in the presence of chemical substance/absence: YDR140W” value (gene YDR140W) was 2.0, the “The level of expressed mRNA in the presence of chemical substance/absence: YDR221W” value (gene YDR221W) was 1.0 and the “The level of expressed mRNA in the presence of chemical substance/absence: YDR250C” value (gene YDR250C) was 1.2. The “The level of expressed mRNA in the presence of chemical substance/absence: YDR271C” value (gene YDR271C) was 1.5, the “The level of expressed mRNA in the presence of chemical substance/absence: YDR278C” value (gene YDR278C) was 0.7 and the “The level of expressed mRNA in the presence of chemical substance/absence: YDR281C” value (gene YDR281C) was 0.7. For the same compound, the “The level of expressed mRNA in the presence of chemical substance/absence: YDR316W” value (gene YDR316W) was 0.6, the “The level of expressed mRNA in the presence of chemical substance/absence: YDR338C” value (gene YDR338C) was 1.3 and the “The level of expressed mRNA in the presence of chemical substance/absence: YDR366C” value (gene YDR366C) was 0.8. The “level of expressed mRNA in the presence of chemical substance/in its absence” value (“level … of chemical substance/in its absence” for short) (gene YDR380W) was 0.4, the “level … of chemical substance/in its absence” value (gene YDR410C) was 1.2 and the “The level of expressed mRNA in the presence of chemical substance/absence: YDR421W” value (gene YDR421W) was 0.6. For the same compound, the “The level of expressed mRNA in the presence of chemical substance/absence: YDR425W” value (gene YDR425W) was 1.4, the “The level of expressed mRNA in the presence of chemical substance/absence: YDR485C” value (gene YDR485C) was 1.2 and the “level … of chemical substance/in its absence” value (gene YDR487C) was 1.5. The “level … of chemical substance/in its absence” value (gene YDR502C) was 1.2, the “The level of expressed mRNA in the presence of chemical substance/absence: YDR504C” value (gene YDR504C) was 2.2 and the “level … of chemical substance/in its absence” value (gene YEL011W) was 1.5. The “level … of chemical substance/in its absence” value (gene YEL020C) was 1.2, the “The level of expressed mRNA in the presence of chemical substance/absence: YEL044W” value (gene YEL044W) was 1.3 and the “level … of chemical substance/in its absence” value (gene YER026C) was 1.9. For the same compound, the “level … of chemical substance/in its absence” value (gene YER069W) was 1.4, the “The level of expressed mRNA in the presence of chemical substance/absence: YER092W” value (gene YER092W) was 1.2 and the “The level of expressed mRNA in the presence of chemical substance/absence: YER182W” value (gene YER182W) was 0.9. The “The level of expressed mRNA in the presence of chemical substance/absence: YFL042C” value (gene YFL042C) was 1.7, the “level … of chemical substance/in its absence” value (gene YFR015C) was 2.5 and the “The level of expressed mRNA in the presence of chemical substance/absence: YFR026C” value (gene YFR026C) was 1.1. For the same compound, the “The level of expressed mRNA in the presence of chemical substance/absence: YFR056C” value (gene YFR056C) was 0.3, the “level … of chemical substance/in its absence” value (gene YGL001C) was 1.0 and the “level … of chemical substance/in its absence” value (gene YGL022W) was 1.0. For the same compound, the “level … of chemical substance/in its absence” value (gene YGL039W) was 1.5, the “The level of expressed mRNA in the presence of chemical substance/absence: YGL041C” value (gene YGL041C) was 1.0 and the “The level of expressed mRNA in the presence of chemical substance/absence: YGL045W” value (gene YGL045W) was 1.3. For the same compound, the “The level of expressed mRNA in the presence of chemical substance/absence: YGL057C” value (gene YGL057C) was 1.3, the “The level of expressed mRNA in the presence of chemical substance/absence: YGL088W” value (gene YGL088W) was 0.7 and the “level … of chemical substance/in its absence” value (gene YGL104C) was 2.0. For the same compound, the “level … of chemical substance/in its absence” value (gene YGL134W) was 0.7, the “level … of chemical substance/in its absence” value (gene YGL154C) was 2.0 and the “The level of expressed mRNA in the presence of chemical substance/absence: YGL183C” value (gene YGL183C) was 1.5. The “level … of chemical substance/in its absence” value (gene YGL209W) was 1.9, the “The level of expressed mRNA in the presence of chemical substance/absence: YGL223C” value (gene YGL223C) was 1.7 and the “level … of chemical substance/in its absence” value (gene YGL253W) was 1.5. The “The level of expressed mRNA in the presence of chemical substance/absence: YGR038W” value (gene YGR038W) was 1.2, the “level … of chemical substance/in its absence” value (gene YGR060W) was 0.6 and the “The level of expressed mRNA in the presence of chemical substance/absence: YGR139W” value (gene YGR139W) was 0.4. For the same compound, the “The level of expressed mRNA in the presence of chemical substance/absence: YGR156W” value (gene YGR156W) was 1.8, the “The level of expressed mRNA in the presence of chemical substance/absence: YGR198W” value (gene YGR198W) was 1.3 and the “The level of expressed mRNA in the presence of chemical substance/absence: YGR210C” value (gene YGR210C) was 1.0. For the same compound, the “The level of expressed mRNA in the presence of chemical substance/absence: YGR211W” value (gene YGR211W) was 0.8, the “The level of expressed mRNA in the presence of chemical substance/absence: YGR237C” value (gene YGR237C) was 1.6 and the “The level of expressed mRNA in the presence of chemical substance/absence: YGR243W” value (gene YGR243W) was 1.1. The “The level of expressed mRNA in the presence of chemical substance/absence: YGR250C” value (gene YGR250C) was 1.7, the “The level of expressed mRNA in the presence of chemical substance/absence: YGR266W” value (gene YGR266W) was 1.1 and the “The level of expressed mRNA in the presence of chemical substance/absence: YGR277C” value (gene YGR277C) was 1.6.
